Test results from patent US11925649B2, “Treatments for diabetic neuropathy” (University of Manitoba, priority 2010, dated 2024).

Columns and labels:
[1] = test system: DRG sensory neurons from M1R knockout mice; experiment: Neurite outgrowth in sensory neuron cultures from M1R knockout mice; format: cell-based, mouse; settings: 1 μM, 24 hr
[2] = test system: STZ-diabetic Sprague Dawley rats; experiment: Prevention of tactile allodynia and sensory nerve conduction slowing in diabetic rats; format: in vivo, rat
Method: Two groups of adult female Sprague Dawley rats were made diabetic with a single intraperitoneal injection of 55 mg/kg STZ. […] A third group of adult male rats was maintained as non-diabetic controls. The three groups of rats were monitored for the onset of diabetic painful neuropathy by measuring paw tactile response thresholds at weeks 5 and 9 of diabetes, as taught by Calcutt (1996, Pain: 68:293-299). […] Sensory nerve conduction velocity (SNCV) was measured in the same cohorts of rats after 8 weeks of diabetes by measuring under isoflurane anesthesia, the latency of H waves in the electromyogram of interosseous muscles following electrical stimulation of the sciatic nerve at the sciatic notch and Achilles tendon and then measuring the distance between the two points of nerve stimulation, as taught by Calcutt (J. Clin. Invest. 111:507-514, 2003).

[3] = test system: AMP-activated protein kinase (AMPK); experiment: AMPK expression in DRG of STZ-diabetic mice (Western blot); format: in vivo, mouse; settings: daily s.c. injections for 8 weeks, lumbar DRG
Method: (§1) Lumbar DRG were isolated and rinsed in ice-cold solution containing STE buffer (250 mmol/l sucrose, 10 mmol/l Tris-HCl, 1 mmol/l EDTA, pH 7.4), and then homogenized with a polytron homogenizer ([…] GmbH, Switzerland) using 3×7.5 s grinding pulses at 30 s intervals according to the method taught by Chowdhury et al. (2010, Diabetes 59: 1082-1091).
(§2) Quantitative Western blotting was performed as previously disclosed by Chowdhury et al (2010) and Fernyhough et al. (1999, Diabetes 48: 881-889). DRG homogenates of 5-10 μg of protein were resolved on a 10% SDS-PAGE gel and electroblotted onto nitrocellulose membrane. Blots were then blocked in 5% nonfat milk containing 0.05% Tween-20, rinsed in PBS (pH 7.4) and incubated with the following antibodies: polyclonal anti-phospho AMPK (1:1000, Cell Signaling Technology, Danvers, MA, US), polyclonal anti-PGC-1α (1:1000, Santa Cruz Biotechnology Inc, Santa Cruz, CA, USA) and monoclonal anti-ATP synthase β subunit (1:2000 dilution, Mitosciences, Eugene, OR). Extracellular signal-regulated kinase (ERK; 1:2000, Covance, Princeton, NJ, US) was probed as a loading control (previous studies show this protein to not change level of expression in DRG in diabetes). […]

PGC-1α = PGC-1α expression in DRG of STZ-diabetic mice (Western blot); format: in vivo, mouse; settings: daily s.c. injections for 8 weeks, lumbar DRG
Method: as §1, §2

COX IV = COX IV expression in DRG of STZ-diabetic mice (Western blot); format: in vivo, mouse; settings: daily injections for 8 weeks
Method: Quantitative Western blotting was performed as described in Example 15. Quantitative Western blotting was performed as previously disclosed by Chowdhury et al (2010) and Fernyhough et al. (1999). DRG homogenates of 5-10 μg of protein were resolved on a 10% SDS-PAGE gel and electroblotted onto nitrocellulose membrane. Blots were then blocked in 5% nonfat milk containing 0.05% Tween-20, rinsed in PBS (pH 7.4) and incubated with the following antibodies: monoclonal anti-cytochrome c oxidase subunit 4 (COX IV; 1:1000, Mitosciences, Eugene, OR, US), monoclonal anti-NADH dehydrogenase (ubiquinone) iron-sulfur protein 3 (NDUFS3, 1:1000, Mitosciences, Eugene, OR, US). Extracellular signal-regulated kinase (T-ERK; 1:2000, Covance, Princeton, NJ, US) was probed as a loading control. The blots were rinsed, incubated in Western blotting Luminol Reagent (Santa Cruz Biotechnology Inc., Santa Cruz, CA, US) and imaged using a BioRad Fluor-S image analyzer (BioRad, Hercules, CA, US).

[4] = test system: mitochondria from lumbar DRG of STZ-diabetic rats; experiment: Mitochondrial respiratory chain activity in lumbar DRG of STZ-diabetic rats; format: in vivo, rat; settings: daily s.c. during last eight weeks, 20 weeks
From the text: as §1, with “The rats were then culled and subsequently the lumbar” for “Lumbar”, “(2010).” for “(2010, Diabetes 59: 1082-1091).”
Mitochondrial respiratory chain activity in freshly isolated mitochondria from lumbar DRG of age-matched control, diabetic, and pirenzepine-treated diabetic rats was determined using a Clarke-type electrode (Oroboros Oxygraph-2K; Oroboros Instruments, Innsbruck, Austria) following the method taught by Chowdhury et al. (2005, Biochem Biophys Res Commun. 333: 1139-1145), in the presence of specific substrates and inhibitors of the mitochondrial respiratory chain (FIG. 19). Basal respiration in lumbar DRG mitochondria is stated as respiration at state 4 with energetic substrates, pyruvate and malate (P+M). Coupled respiration at state 3 was induced by addition of ADP. Then, the uncoupled rate was determined by adding the uncoupling agent, carbonylcyanide p-trifluoromethoxyphenylhydrazone (FCCP). Ascorbate (Asc) and N,N,N′,N′-tetramethyl-p-phenylenediamine (TMPD) were then added to determine the capacity of cytochrome c oxidase (complex IV). TMPD is an artificial redox mediator that assists transfer of electrons from ascorbate to cytochrome c.

## CN1CCN(CC(=O)N2c3ccccc3C(=O)Nc3cccnc32)CC1 [pirenzepine, 11-[2-(4-methylpiperazin-1-yl)acetyl]-5H-pyrido[2,3-b][1,4]benzodiazepin-6-1]
[1]
  neurite outgrowth: did not enhance neurite outgrowth
[2]; 10 mg/kg daily s.c., after 5 weeks of diabetes
  paw tactile response thresholds: significantly higher than vehicle treated diabetic rats
[2]; 10 mg/kg daily s.c., after 8 weeks of diabetes
  sensory nerve conduction velocity (SNCV): partially prevented this deficit
[2]; 10 mg/kg daily s.c., week 9 of diabetes
  paw tactile response thresholds: not different from control rats
[2]; daily s.c., after 5 or 9 weeks of treatment
  paw tactile allodynia: prevents paw tactile allodynia
[3]
  expression of P-AMPK: restored the expression
  expression of T-AMPK: restored the expression
PGC-1α
  expression of PGC-1α: restored the expression
COX IV
  expression of COX IV mitochondrial protein: restored the expression
[4]
  capacity of cytochrome c oxidase (complex IV) (Asc+TMPD): not significantly different from the non-diabetic controls
  coupled respiration (P+M+ADP): not significantly different from the non-diabetic controls
  uncoupled respiration (FCCP): not significantly different from the non-diabetic controls
[4]; vs control and diabetic rats
  basal respiration rates with pyruvate and malate (P+M): similar
